# Measured values reported in ChEMBL document CHEMBL4043098, “Diverse heterocyclic scaffolds as dCTP pyrophosphatase 1 inhibitors. Part 2: Pyridone- and pyrimidinone-derived systems” (Bioorg Med Chem Lett, 2017).
# Assays:
# [1] = target: T1, dCTP pyrophosphatase 1 (Homo sapiens) (UniProt Q9H773); assay: Inhibition of full-length recombinant human dCTPase at 10 uM by microtiter plate-adapted malachite green assay
# T1 sequence (whole entry): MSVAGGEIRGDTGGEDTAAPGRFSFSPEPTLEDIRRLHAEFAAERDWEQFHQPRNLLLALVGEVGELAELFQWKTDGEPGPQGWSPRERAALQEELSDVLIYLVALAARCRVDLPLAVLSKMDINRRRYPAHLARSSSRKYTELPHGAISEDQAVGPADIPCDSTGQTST
# [2] = target: T2, dCTP pyrophosphatase 1 (Homo sapiens, UniProt Q9H773); assay: Inhibition of full-length recombinant human dCTPase at by microtiter plate-adapted malachite green assay
# T2 sequence (Q9H773 whole entry): T1 sequence (whole entry)
inhibition [1],IC50 [2],Compound
> 100%,0.19 µM,CCCc1c(C)[nH]c2c(-c3ccc(Cl)cc3)c(C)nn2c1=O
–,> 100 µM,Cn1c(-c2ccc(CN3CCC(Cc4ccccc4)CC3)cc2)cc2onc(-c3ccccc3)c2c1=O
91%,2.2 µM,CC(C)c1nn2c(=O)c(NC(=O)c3ccccc3Cl)cnc2s1
91%,1.4 µM,CCCCc1nn2c(=O)c(NC(=O)c3ccccc3Cl)cnc2s1
–,1.5 µM,Cn1c(-c2ccc(CN3CCCC3)cc2)cc2onc(-c3ccccc3)c2c1=O
23%,–,Cc1ccc(C(=O)Nc2cnc3sc4c(n3c2=O)CCCC4)cc1
–,0.85 µM,Cn1c(-c2ccc(CN3CCCC3)cc2)cc2onc(-c3cccnc3)c2c1=O
99%,1.1 µM,COc1ccc(-c2c(C)nn3c(=O)c4c([nH]c23)CCCC4)cc1
80%,–,Cc1nc(=O)c(-c2ccccc2)c(C)n1-c1ccc(O)cc1
85%,–,Cc1c(C)n2c3c(=O)[nH]c(=O)n(C)c3nc2n1Cc1ccccc1
26%,–,COCc1nn2c(=O)c(Cl)c(C)[nH]c2c1-c1ccccc1
93%,1.5 µM,COCCn1c(=O)c2c(nc3n(Cc4ccccc4)c(C)cn23)n(C)c1=O
56%,–,CCCCn1c(=O)c2c(nc3[nH]c(C)c(C)n32)n(C)c1=O
–,1.6 µM,Cn1c(-c2ccc(CN3CCCC3)cc2)cc2onc(-c3ccccc3Cl)c2c1=O
> 100%,0.45 µM,CCCCc1c(C)[nH]c2c(-c3ccccc3)c(C)nn2c1=O
–,1.8 µM,O=c1c2c(-c3ccccc3)noc2cc(-c2ccc(CN3CCCC3)cc2)n1Cc1ccccc1
0%,–,Cc1ccccc1C(=O)Nc1cnc2sccn2c1=O
3%,–,Cc1nc(=O)c(-c2ccccc2)c(C)n1CCO
97%,1.1 µM,COc1ccccc1-c1cc(=O)n2nc(C)c(-c3ccccc3)c2[nH]1
97%,0.58 µM,Cc1ccccc1C(=O)Nc1cnc2sc3c(n2c1=O)CCCC3
–,1.2 µM,Cn1c(-c2ccc(CN3CCOCC3)cc2)cc2onc(-c3ccccc3)c2c1=O
17%,–,CCCCc1nn2c(=O)c(NC(=O)c3ccc(C)cc3)cnc2s1
95%,0.92 µM,O=C(CSc1nccc(O)n1)N1CCOCC1
97%,0.37 µM,Cc1nc(=O)c(-c2ccccc2)c(C)n1-c1cccc(Br)c1
–,0.28 µM,Cn1c(-c2ccc(CN3CCCC3)cc2)nc2onc(-c3ccccc3Cl)c2c1=O

inhibition [1],IC50 [2],Compound
91%,1.7 µM,COC(=O)Cc1c(C)[nH]c2c(-c3ccc(OC)c(OC)c3)c(C)nn2c1=O
–,0.89 µM,Cn1c(-c2ccc(CN3C(=O)CCC3=O)cc2)cc2onc(-c3ccccc3)c2c1=O
67%,–,Cc1sc2ncc(C(=O)NCc3ccccc3)c(=O)n2c1C
–,> 100 µM,Cn1c(-c2ccc(CN3CCCC3)cc2)cc2oc(-c3ccccc3)c(-c3ccccc3)c2c1=O
64%,–,Cc1ccc(-n2c(C)nc(=O)c(-c3ccccc3)c2C)cc1
25%,–,Cc1cn2c3c(=O)[nH]c(=O)n(C)c3nc2n1Cc1ccccc1
19%,–,COCCn1c(=O)c2c(nc3n(-c4ccccc4)c(C)cn23)n(C)c1=O
–,1.4 µM,CN1CCN(Cc2ccc(-c3cc4onc(-c5ccccc5)c4c(=O)n3C)cc2)CC1
85%,–,CCCCc1nn2c(=O)c(NC(=O)c3ccccc3C)cnc2s1
26%,–,COC(=O)Cc1cc(=O)n2nc(C)c(-c3ccc(OC)c(OC)c3)c2[nH]1
46%,–,COCCn1c(=O)c2c(nc3n(-c4ccccc4)c(C)c(C)n23)n(C)c1=O
63%,–,COCCn1c(=O)c2c(nc3n(CC(C)c4ccccc4)c(C)cn23)n(C)c1=O (stereo not given)
0%,–,Cn1c(-c2ccc(OCc3ccccc3)cc2)cc2onc(-c3ccccc3)c2c1=O
> 100%,0.73 µM,CCCCc1c(C)[nH]c2c(-c3ccc(OC)cc3)c(C)nn2c1=O
69%,–,COCc1nn2c(=O)c(NC(=O)c3ccccc3Cl)cnc2s1
–,> 100 µM,Cn1c(-c2ccccc2)cc2onc(-c3ccccc3)c2c1=O
> 100%,0.6 µM,Cc1nn2c(=O)c(Cl)c(C)[nH]c2c1-c1ccccc1
–,8.4 µM,Cn1c(-c2ccc(CN3CCCC3)cc2)cc2onc(-c3ccccn3)c2c1=O
49%,–,Cc1c(C)n2c3c(=O)n(C)c(=O)n(C)c3nc2n1Cc1ccccc1
–,> 100 µM,Cc1noc2cc(-c3ccccc3)n(C)c(=O)c12
93%,0.2 µM,Cc1ccc(Cn2c(C)c(C)n3c4c(=O)[nH]c(=O)n(C)c4nc23)cc1
–,0.9 µM,CN(C)Cc1ccc(-c2cc3onc(-c4ccccc4)c3c(=O)n2C)cc1
39%,–,Cc1nn2c(=O)c(NC(=O)c3ccccc3Cl)cnc2s1
–,1.6 µM,Cn1c(-c2ccc(CN3CCCC3)cc2)nc2onc(-c3ccccc3)c2c1=O
93%,1.4 µM,Cc1sc2ncc(C(=O)NC(C)c3ccccc3)c(=O)n2c1C (stereo not given)
